Columns and labels:
[1] = test system: hTERT+TK-transduced human corneal stromal cells; assay: Susceptibility to ganciclovir treatment, cell count with trypan-blue staining; assay type: cell-based; conditions: n=3
Method: (§1) The susceptibilities of the transduced human corneal stromal cells to ganciclovir treatment were investigated by the following process. The hTERT-transduced human corneal stromal cells of Comparative Example and the hTERT+TK-transduced human corneal stromal cells of Example 1 were separately seeded at 2×10^4 cells/cm^2 in a 24-well plate, and cultured under conditions of 37° C. and 5% CO2 (medium: DMEM, 10% FBS, 100 U/ml penicillin and 100 μg/ml streptomycin). On the 1st day after seeding, ganciclovir treatment was started (treatment concentration: 0, 10^−7, […], […], and 10^−4 M; time course: day 0, 2, 4, 6, 8, 10, and 12). The susceptibility of each type of the transduced human corneal stromal cells to ganciclovir treatment was determined using 3 wells for each concentration at each time point (n=3). At each time point, the number of the cells was counted with trypan-blue staining. For counting with trypan-blue staining, an erythrocytometer (hematometer; product name: Burker-Turk deep 1/10 mm; product number: Tokyo No. 0880 (ERMA, Inc.)) was used. Immediately after staining, each sample was placed in a counting chamber of the erythrocytometer. Immediately after that, the number of the cells was counted. The average number of the cells on the zero-day of ganciclovir treatment at each treatment concentration was used as a baseline (100%) for the results of the cell number at each time point.

[2] = test system: hTERT-transduced human corneal stromal cells (not transduced with the HSV-TK gene); assay: as above; assay type: cell-based; conditions: any treatment concentration (up to 10^-4 M), 12th day after ganciclovir treatment, n=3
Method: as §1

Nc1nc(O)c2ncn(COC(CO)CO)c2n1 [ganciclovir]
number of the cells after ganciclovir treatment ([1]; 10^-4 M treatment group, 6th day after ganciclovir treatment): all the cells died | number of the cells after ganciclovir treatment ([1]; 10^-7, 10^-6 and 10^-5 M groups, from the 8th day after ganciclovir treatment): concentration-dependent decrease in the number of the cells | number of the cells after ganciclovir treatment [2]: did not decrease

— patent publication US20120149598A1, “FEEDER CELLS FOR TARGET CELL INDUCTION” (priority 2009, published 2012)
